These results are taken from patent US11786839B2, “Eutectic extract formation and purification” (Givaudan France Naturals SAS, priority 2018, dated 2023).

The structures appear in SMILES notation.

Assay [1] is described as follows: Conjugated autoxidizable triene (CAT) assay. It counts as biochemical. How it is done:
Antioxidant solutions were prepared as follows: a methanol solution of eutectic extract or Trolox (reference) was prepared at the desired concentration. […] Various volumes of this solution (25, 50, 75, and 100 μL) were then added to 24.9 mL of phosphate buffer solution (PBS), pH 7.2, and then filled to 25.0 mL with pure methanol (75, 50, 25, and 0 μL, respectively). In this way, all buffered solutions of eutectic extract contained the same methanol volume (100 μL), which minimizes any possible bias among samples. Samples of these solutions (50 μL/well) were transferred using a multichannel micropipet into UV-Star 96-well microplate (Greiner, Frickenhausen, Germany) (absorbance at 273 nm=0.03). The microplate was then prewarmed and stirred in a thermostated shaker (PHMT Grant Instruments, […], England) at 37° C. for 5 min at 1,200 rpm. […] Each well was then filled with 100 μL of this tung oil-in-PBS emulsion. To improve repeatability, the microplate was then immediately pre-warmed and shaken, sheltered from light, in a thermostated shaker (PHMT Grant Instruments) at 37° C. for 1 min at 1,200 rpm. Fifty microliters of a freshly prepared AAPH solution in PBS (4 mM) was added with a multi-channel micropipet. […] The progress of reactions was immediately monitored by recording the decrease in absorbance at 273 nm. […] Each experiment was performed in triplicate (three wells), and results were expressed as the mean of CAT value (see below) ±SD. Similarly, to the ORAC assay, the antioxidant value of a sample was calculated through the difference between the area under the curve of this sample and that of the blank (without eutectic extract). The result of this operation gave the net area under the curve (AUC) which was then plotted on a graph as a function of the concentration. Only the linear part of the curve was taken into account to calculate the slope which was then divided by the slope of the Trolox (standard) calculated in the same conditions and analyzed on the same microplate. As such, CAT values were expressed as μmol Trolox equivalent/g eutectic extract.

Assay [2] in a line: Oxygen radical absorbance capacity (ORAC) method.
Procedure: Test of Physico-Chemical Efficacy as Antioxidant—Oxygen Radical Absorbance Capacity (ORAC) Method
Phosphate buffer solutions (pH 7.2) containing the desired concentrations of eutectic extracts were prepared. Fifty millilitres of each solution were transferred by multi-channel pipette into a Fluotrac 96-well microplate (Greiner).
To improve the repeatability, the microplate was pre-heated at 37° C. under orbital stirring at 1,200 rpm in a temperature-controlled thermoshaker (PHMT series, Grant Instruments Ltd, Shepreth, England) for 20 minutes.
50 μL of AAPH solution in freshly prepared phosphate buffer solution was then added using a multi-channel pipette.
A drop in fluorescence to 515 nm (λex: 490 nm) was immediately recorded. Measurements were then taken every minute for 2 hours at 37±0.1° C. with 5 seconds of stirring before each measurement using a microplate reader.
Setting [3] is: Table 1, fresh rosemary eutectic extracts.
Where [4] appears, read: Table 2, dried rosemary powder eutectic extracts.

Take `CC[N+](CC)(CC)Cc1ccccc1.[Cl-]` [BTEAC alone, benzyltriethyl ammonium chloride]: the CAT value in assay [1] (setting [3]) and in assay [1] (setting [4]) was 0.7 μmol TE/g throughout. For the same molecule, the ORAC value in assay [2] (setting [3]) and in assay [2] (setting [4]) was 2.8 μmol TE/g in each case.
Take `CCCCn1cc[n+](C)c1.[Cl-]` [BmimCl alone, 1-butyl-3-methylimidazolium chloride]: the CAT value in assay [1] (setting [4]) turned out to be 0.24 μmol TE/g. For the same molecule, the ORAC value in assay [2] (setting [4]) came to 1.1 μmol TE/g.
Turning to `C[N+](C)(C)CCO.[Cl-]` [ChCl alone, choline chloride], the CAT value in assay [1] (setting [3]) and in assay [1] (setting [4]) was 0 μmol TE/g throughout. Moreover, the ORAC value in assay [2] (setting [3]) and in assay [2] (setting [4]) was 0.3 μmol TE/g in each case.
As to `CCCCCCCC/C=C\CCCCCCCC(=O)O` [oleic acid], the “ORAC method result in words” value in assay [2] (pure substance) was “positive value, although a modest one”.
